Experimental findings from patent US9642874B2, “Compositions of selenoorganic compounds and methods of use thereof” (Alltech, Inc., priority 2014, dated 2017) are described below.

Assay [1] concerns primary mouse hepatocytes. Description: Glucose production in primary mouse hepatocytes (glucose in culture media). The assay is classed as cell-based. As to conditions: for 8-CPT/Dex-stimulated glucose production: serum-free; for 8-CPT/Dex-stimulated glucose production / decrease of glucose production: 6 hours. Here is the method:
(§1) The overnight-acclimated hepatocytes were washed twice with PBS (to remove any residual FBS and other additives in the TRL hepatocyte maintenance medium, pretreated with control (water) or selenium Compounds CDE (150 or 300 ppb of each selenium compound) in DMEM/F12 media supplemented with 10% fetal bovine serum (FBS) for 24 hr. These cells were then washed twice with PBS and incubated with the same dose of selenium Compounds CDE (150 or 300 ppb) in the presence or absence of insulin (10 or 100 nM, Sigma), 0.1 mM 8-CPT (Sigma) or 0.5 μM Dex (Sigma) in serum-free and glucose-free DMEM media (Invitrogen) supplemented with 20 mM lactose (Sigma) and 2 mM pyruvate (Sigma) and 15 mM HEPES (Sigma) for another 6 hours. After treatments, cell media were collected and subjected to glucose assay and toxicological studies of lactate dehydrogenase (LDH) and cells were collected for RNA and protein analysis.
For the studies of Compounds CDE on primary mouse hepatocytes under totally serum-free culture conditions, hepatocytes were acclimated in hepatocyte maintenance medium (TRL) for 8 hours, washed twice with PBS (to remove any residual FBS and other additives in the culture dish) and then starved in serum-free DMEM/F12 media overnight. Some of these serum-starved hepatocytes were treated with control (water), selenium compounds (150 or 300 ppb of each compound) in the presence or absence of insulin (10 or 100 nM), 0.1 mM 8-CPT (Sigma) or 0.5 μM Dex (Sigma) in serum-free and glucose/phenol red-free DMEM media supplemented with 20 mM lactose and 2 mM pyruvate and 15 mM HEPES for 6 hours. After 6 hours treatment, culture media were collected for glucose analysis and toxicological studies monitoring LDH activity and cultured cells were isolated for protein analysis. In addition, some serum-starved hepatocytes were treated with Compounds CDE (300 ppb of each compound) in plain DMEM/F12 media for 0, 5, 30, 60, 120 and 180 min and cells were collected for the time-course protein analysis of various signaling molecules.
Cell culture media from the above described treatments were collected and centrifuged at 300×g for 5 minutes to remove any potential dislodged hepatocytes and subjected to glucose analysis using a colormetric glucose assay kit (Abcam) according to the manufacturer protocol. The absorbance at OD570 nm in the samples and various concentrations of glucose standards were determined by the Bio-Tek microplate reader, and glucose concentration in the medium of each sample was obtained from the glucose standard curve, and then normalized by its protein level in attached cells which were determined using the Pierce Micro-BCA protein assay kit (Thermo Scientific-Piece Biotechnology, Rockford, Ill.) according to the manufacturer's protocol. Glucose levels in each treatment group were divided by the mean level in control group (without the treatments of Compounds CDE, insulin, 8-CPT and Dex) to obtain the relative glucose level. Data are presented as Mean±SEM of 3-4 samples.
Similar to the studies on AML-12 cells, primary mouse hepatocytes were pretreated with a control (water) or 150 ppb and 300 ppb doses of selenium Compounds CDE in serum-containing DMEM/F12 media for 24 hours. This treatment was followed by retreatments with these selenium compounds in the presence or absence of insulin (10 and 100 nM) or insulin alone for 6 hours. […]

For a further assay, the system named is Foxo3. Description: Western blot of pFoxo3T32 in primary mouse hepatocytes. The following applies: 100 nM insulin 6 hours, or Compounds CDE both doses 24 hours + 6 hours. The assay is classed as cell-based. The method, then: as §1, with “After treatments, cell media were collected and subjected to glucose assay and toxicological studies of lactate dehydrogenase (LDH) and cells were collected for RNA and protein analysis.” left out
After the above described treatments, primary mouse hepatocytes were rinsed with ice-cold PBS and lysed in the ice-cold RIPA buffer containing complete proteinase and phosphatase inhibitors (Thermo-Fisher Scientific, Waltham, Mass.) on ice for 30 min Cell lysates were collected using a cell scraper and transfer pipette and then centrifuged at 12000×g for 30 min at 4° C. to remove the DNA pellet and obtain the protein extract. Protein levels in the supernatant of these cell lysates were determined using the Pierce Micro-BCA protein assay kit (Thermo Scientific-Piece Biotechnology, Rockford, Ill.) according to the manufacturer's protocol. […]
Background: In western blotting, separated proteins are transferred to a membrane and probed.

As to “insulin: insulin (10 or 100 nM, Sigma) used as comparator and cotreatment”, the 8-CPT/Dex-stimulated glucose production entry in assay [1] (10 nM insulin) was “significantly inhibited glucose production”; in assay [1] (100 nM insulin), “only a trend of decreased glucose production”. Besides, the 8-CPT/Dex-induced glucose production entry in assay [1] (insulin 10 and 100 nM, vs 8-CPT/Dex group) is “significantly decreased 8-CPT/Dex-induced glucose production”. The “decrease of glucose production” value in assay [1] (insulin alone at 10 nM and 100 nM, vs water-treated control) was 25-30%; in assay [1] (insulin alone, both doses (10, 100 nM), serum-starved, serum-free media), 40-47%. Moreover, in the assay on Foxo3, the “pFoxo3T32 protein level (in words)” value was “significant increase”.
